Source: ChEMBL document CHEMBL4706768, “Discovery of Potent, Selective Triazolothiadiazole-Containing c-Met Inhibitors” (ACS Med Chem Lett, 2021)

Experiments:
[1] = biological target: Dual specificity mitogen-activated protein kinase kinase 1 (Homo sapiens) (UniProt Q02750); test: Inhibition of recombinant human N-terminal GST-tagged/C-terminal His6-tagged full-length MEK1 expressed in Escherichia coli at 2 uM using MBP as substrate relative to control
[2] = biological target: Mitogen-activated protein kinase; ERK1/ERK2 (Homo sapiens) (UniProt P27361+P28482); test: Inhibition of recombinant human full-length N-terminal GST-tagged MAPK1/ERK1 ([…]) expressed in Escherichia coli at 2 uM using MBP as substrate relative to control
[3] = biological target: Inhibitor of nuclear factor kappa-B kinase subunit alpha (Homo sapiens) (UniProt O15111); test: Inhibition of IKKa (unknown origin) at 2 uM relative to control

Measured: inhibition

Inhibitor of nuclear factor kappa-B kinase subunit alpha (Homo sapiens), sequence (O15111 whole entry): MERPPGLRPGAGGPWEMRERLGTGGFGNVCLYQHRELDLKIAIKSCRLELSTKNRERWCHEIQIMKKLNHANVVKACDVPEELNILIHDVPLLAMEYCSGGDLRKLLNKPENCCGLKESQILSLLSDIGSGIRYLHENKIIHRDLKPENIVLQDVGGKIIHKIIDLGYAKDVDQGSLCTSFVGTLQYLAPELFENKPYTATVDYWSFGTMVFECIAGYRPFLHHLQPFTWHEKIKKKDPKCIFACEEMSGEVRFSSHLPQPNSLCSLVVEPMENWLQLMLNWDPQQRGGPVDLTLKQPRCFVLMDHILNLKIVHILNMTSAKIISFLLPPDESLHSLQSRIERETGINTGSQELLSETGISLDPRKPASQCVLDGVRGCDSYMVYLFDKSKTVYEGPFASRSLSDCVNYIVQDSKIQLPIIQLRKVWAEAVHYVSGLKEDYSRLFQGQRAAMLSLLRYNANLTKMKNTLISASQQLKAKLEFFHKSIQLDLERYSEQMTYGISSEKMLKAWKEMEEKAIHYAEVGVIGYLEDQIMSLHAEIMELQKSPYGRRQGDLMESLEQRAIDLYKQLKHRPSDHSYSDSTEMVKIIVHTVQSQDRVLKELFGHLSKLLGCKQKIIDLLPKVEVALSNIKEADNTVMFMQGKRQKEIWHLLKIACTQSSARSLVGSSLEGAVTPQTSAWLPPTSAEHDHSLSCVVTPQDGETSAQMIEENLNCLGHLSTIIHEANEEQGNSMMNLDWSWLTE
Mitogen-activated protein kinase; ERK1/ERK2 (Homo sapiens), sequence (P27361 whole entry, looked up): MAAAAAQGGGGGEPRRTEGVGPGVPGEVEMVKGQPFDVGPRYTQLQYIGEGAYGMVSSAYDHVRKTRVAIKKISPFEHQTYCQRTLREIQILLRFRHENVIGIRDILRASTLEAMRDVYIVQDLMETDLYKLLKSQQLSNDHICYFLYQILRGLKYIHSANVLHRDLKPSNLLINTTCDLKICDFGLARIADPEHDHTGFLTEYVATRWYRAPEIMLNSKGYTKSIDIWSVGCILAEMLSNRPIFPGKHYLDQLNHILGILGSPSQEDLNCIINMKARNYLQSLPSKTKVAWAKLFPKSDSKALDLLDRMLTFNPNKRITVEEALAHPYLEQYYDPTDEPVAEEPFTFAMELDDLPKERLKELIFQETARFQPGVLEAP
Mitogen-activated protein kinase; ERK1/ERK2 (Homo sapiens), sequence (P28482 whole entry, looked up): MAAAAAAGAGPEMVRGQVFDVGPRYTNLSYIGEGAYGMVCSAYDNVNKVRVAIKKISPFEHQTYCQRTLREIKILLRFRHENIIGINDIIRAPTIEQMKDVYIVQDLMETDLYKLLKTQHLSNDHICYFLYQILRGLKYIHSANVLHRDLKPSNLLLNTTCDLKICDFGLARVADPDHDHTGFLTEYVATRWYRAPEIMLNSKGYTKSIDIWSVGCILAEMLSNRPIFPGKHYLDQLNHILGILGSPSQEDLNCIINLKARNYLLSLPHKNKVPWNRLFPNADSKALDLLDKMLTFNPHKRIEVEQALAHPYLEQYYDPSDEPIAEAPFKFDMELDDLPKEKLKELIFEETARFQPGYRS
Dual specificity mitogen-activated protein kinase kinase 1 (Homo sapiens), sequence (Q02750 whole entry): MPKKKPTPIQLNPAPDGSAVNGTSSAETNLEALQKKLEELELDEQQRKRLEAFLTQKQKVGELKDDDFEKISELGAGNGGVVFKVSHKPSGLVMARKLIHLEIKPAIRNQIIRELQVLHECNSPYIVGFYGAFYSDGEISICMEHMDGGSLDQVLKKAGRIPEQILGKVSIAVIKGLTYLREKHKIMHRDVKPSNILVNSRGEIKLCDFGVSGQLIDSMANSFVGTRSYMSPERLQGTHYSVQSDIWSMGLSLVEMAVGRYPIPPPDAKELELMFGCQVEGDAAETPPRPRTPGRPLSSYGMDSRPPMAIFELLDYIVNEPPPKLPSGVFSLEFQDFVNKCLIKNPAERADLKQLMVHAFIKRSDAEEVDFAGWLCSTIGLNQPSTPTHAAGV

C[C@@H](c1ccc2ncccc2c1)c1nnc2sc(-c3cnn(C)c3)nn12
< 50%: [1] | [2] | [3]
